Measurements: US20130197205A1, “CHITOSAN COVALENTLY LINKED WITH SMALL MOLECULE INTEGRIN ANTAGONIST FOR TARGETED DELIVERY” (Hoffmann-La Roche Inc., priority 2012, published 2013)
pIC50: −log10 of the molar value. Where two headings read alike, the source gives them in different places.

Target: T1, αvβ3 (Homo sapiens, UniProt P05106+P06756, DEL719-788)
T1 construct: purchased R & D 3050-AV
Test: Human αVβ3 solid phase assay (fibrinogen binding)
Conditions: αvβ3-coated plates, fibrinogen as ligand
Protocol: Buffer used was Buffer A: 20 mM Tris, 150 mM NaCl, 1 mM CaCl2, 1 mM MgCl2, pH 7.4. […] After blocking, plates were washed 5 times with 200 uL of Buffer B (Buffer A+1 mM MnCl2). […] Plates were shaken for 2 minutes, and then incubated for 2 hours for 37° C. […] After the addition of 1st antibody and after the addition of 2nd antibody, plates were shaken for 2 minutes and incubated for 60 minutes at 37° C., and then washed 5 times with 200 uL of Buffer B correspondingly. […] Plates were shaken at RT for 5-8 min, and the development of a green color was gradually showing. After being added 100 uL/well Stop Buffer (1.0 M Phosphoric Acid ([…])), plates were read on Envision at Absorbance mode 450 nm.

T1 sequence (P06756 31-992 limits assumed, stated change not applied): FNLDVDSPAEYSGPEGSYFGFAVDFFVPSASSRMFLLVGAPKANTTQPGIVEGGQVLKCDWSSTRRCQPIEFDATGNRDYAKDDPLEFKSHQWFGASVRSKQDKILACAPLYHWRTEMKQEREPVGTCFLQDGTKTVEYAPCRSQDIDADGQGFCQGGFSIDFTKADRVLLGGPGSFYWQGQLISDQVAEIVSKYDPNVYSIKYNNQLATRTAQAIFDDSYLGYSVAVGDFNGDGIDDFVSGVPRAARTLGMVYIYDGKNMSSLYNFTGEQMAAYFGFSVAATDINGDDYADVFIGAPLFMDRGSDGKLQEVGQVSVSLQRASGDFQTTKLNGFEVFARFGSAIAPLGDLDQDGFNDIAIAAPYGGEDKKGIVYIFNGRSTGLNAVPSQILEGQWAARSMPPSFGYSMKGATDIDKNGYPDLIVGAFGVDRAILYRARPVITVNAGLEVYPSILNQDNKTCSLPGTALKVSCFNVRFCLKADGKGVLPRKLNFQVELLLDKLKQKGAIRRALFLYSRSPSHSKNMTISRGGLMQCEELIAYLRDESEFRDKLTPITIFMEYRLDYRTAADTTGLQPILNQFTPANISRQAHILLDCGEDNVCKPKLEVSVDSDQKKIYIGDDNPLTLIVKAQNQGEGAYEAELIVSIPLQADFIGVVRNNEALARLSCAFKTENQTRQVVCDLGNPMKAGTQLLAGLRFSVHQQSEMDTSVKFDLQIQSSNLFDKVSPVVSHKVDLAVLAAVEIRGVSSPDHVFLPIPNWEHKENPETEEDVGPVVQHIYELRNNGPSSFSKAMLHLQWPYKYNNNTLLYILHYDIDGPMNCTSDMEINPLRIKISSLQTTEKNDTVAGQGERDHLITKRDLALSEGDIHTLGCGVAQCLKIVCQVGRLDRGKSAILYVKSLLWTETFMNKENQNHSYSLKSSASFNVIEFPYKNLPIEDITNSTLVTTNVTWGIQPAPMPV
T1 sequence (P05106 27-718 limits assumed, stated change not applied): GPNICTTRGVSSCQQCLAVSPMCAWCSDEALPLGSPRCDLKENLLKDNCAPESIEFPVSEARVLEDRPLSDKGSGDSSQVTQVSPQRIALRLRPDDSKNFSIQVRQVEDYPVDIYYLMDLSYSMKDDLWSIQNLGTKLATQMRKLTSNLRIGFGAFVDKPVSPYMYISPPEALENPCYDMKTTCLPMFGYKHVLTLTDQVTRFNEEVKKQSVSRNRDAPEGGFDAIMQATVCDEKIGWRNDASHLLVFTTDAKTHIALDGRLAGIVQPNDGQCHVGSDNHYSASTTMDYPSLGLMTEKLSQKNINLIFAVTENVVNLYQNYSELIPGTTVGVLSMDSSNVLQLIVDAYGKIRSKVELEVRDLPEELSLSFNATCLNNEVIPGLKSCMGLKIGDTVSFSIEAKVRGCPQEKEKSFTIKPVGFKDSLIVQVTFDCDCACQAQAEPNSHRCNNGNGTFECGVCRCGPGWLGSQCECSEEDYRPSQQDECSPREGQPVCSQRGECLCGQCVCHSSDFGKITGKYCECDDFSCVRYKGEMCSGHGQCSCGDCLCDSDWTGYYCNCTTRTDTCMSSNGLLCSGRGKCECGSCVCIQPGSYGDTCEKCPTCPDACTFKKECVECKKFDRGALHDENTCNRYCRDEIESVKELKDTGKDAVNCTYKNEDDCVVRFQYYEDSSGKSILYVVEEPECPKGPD

With `COc1ccc(NC(=O)[C@H](CC(=O)O)NC(=O)CNC(=O)c2cccc(N=C(N)N)c2)cc1` [compound 28] the pIC50 (read-out: Binding IC50) was 8.70 and the pIC50 (read-out: IC50 of control compound) was roughly 8.70.
